# Measurements published in patent publication US11066414B2, “Cot modulators and methods of use thereof” (Gilead Sciences, Inc., priority 2015, dated 2021).
# Like-named read-outs stand apart in the source and are kept apart here.
# What was measured:
# Human Cot = Human Cot (Homo sapiens (Human), UniProt P41279); test: High Throughput Cot Biochemical Assay
# TNFα = test: Cot Monocyte TNFα Cell Based Assay
# [1] = IC50 HTRF, Cot HTRF (TR-FRET) biochemical assay
# [2] = Homo sapiens, Monocyte, read-out: EC50 TNF, LPS-stimulated human monocytes, TNFα
# [3] = IC50 HTRF, Cot HTRF (TR-FRET KinEASE) biochemical assay, 400 μM ATP
# [4] = Homo sapiens, Monocyte, read-out: EC50 TNF, LPS-stimulated human monocytes, TNFα TR-FRET
# [5] = read-out: IC50 HTRF, Cot HTRF (TR-FRET) biochemical assay
# [6] = read-out: EC50 TNF, LPS-stimulated human monocytes, TNFα
# Chain of Human Cot (P41279 30-397): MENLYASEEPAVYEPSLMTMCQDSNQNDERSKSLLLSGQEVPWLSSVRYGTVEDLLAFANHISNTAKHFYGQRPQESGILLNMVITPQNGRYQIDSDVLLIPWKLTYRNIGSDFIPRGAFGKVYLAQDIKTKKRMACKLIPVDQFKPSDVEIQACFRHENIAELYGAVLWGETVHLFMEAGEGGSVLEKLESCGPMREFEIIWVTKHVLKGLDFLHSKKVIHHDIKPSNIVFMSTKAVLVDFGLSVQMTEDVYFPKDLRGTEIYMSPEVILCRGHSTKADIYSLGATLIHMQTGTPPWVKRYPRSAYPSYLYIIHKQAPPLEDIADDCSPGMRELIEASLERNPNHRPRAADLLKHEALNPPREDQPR
Compound,IC50 (Human Cot; [1]),EC50 (TNFα; [2]),also measured
"CC(C)(C)CNc1c(C#N)cnc2c(C#N)cc(N[C@H](c3cn(C4(C(F)(F)F)CC4)nn3)c3ccc(F)c4ncccc34)cc12 [Example 627, (S)-6-(((8-fluoroquinolin-5-yl)(1-(1-(trifluoro-methyl)cyclopropyl)-1H-1,2,3-triazol-4-yl)methyl)amino)-4-(neopentylamino)quinoline-3,8-dicarbonitrile]",4 nM,46 nM,
"CC(C)(C)CNc1c(C#N)cnc2c(Cl)cc(N[C@H](c3cn(C4CC4)nn3)c3ccc(F)nc3Cl)cc12 [Example 436, (S)-8-chloro-6-(((2-chloro-6-fluoro-pyridin-3-yl)(1-cyclopropyl-1H-1,2,3-triazol-4-yl)methyl)amino)-4-(neo-pentylamino)quinoline-3-carbonitrile]",5 nM,289 nM,
"CC1(C)COCC[C@H]1Nc1c(C#N)cnc2c(C#N)cc(N[C@H](c3cn(C4(C(F)(F)F)CC4)nn3)c3cccc4ncsc34)cc12 [Example 474, 6-(((S)-benzo[d]thiazol-7-yl(1-(1-(trifluoromethyl)cyclopropyl)-1H-1,2,3-triazol-4-yl)methyl)amino)-4-(((R)-3,3-dimethyltetrahydro-2H-pyran-4-yl)amino)quinoline-3,8-dicarbonitrile]",2 nM,26 nM,
"CC1(C)COCCC1Nc1c(C#N)cnc2c(C#N)cc(N[C@H](c3cn(C4(C(F)(F)F)CC4)nn3)c3cccc4ncsc34)cc12 (stereo partly drawn) [Example 452, 6-(((S)-benzo[d]thiazol-7-yl(1-(1-(trifluoromethyl)cyclopropyl)-1H-1,2,3-triazol-4-yl)methyl)amino)-4-((3,3-dimethyltetrahydro-2H-pyran-4-yl)amino)quinoline-3,8-dicarbonitrile]",4 nM,73 nM,
"Cc1nc2cccc([C@H](Nc3cc(C#N)c4ncc(C#N)c(NCC(C)(C)C)c4c3)c3cn(C4CC4)nn3)c2s1 [Example 427, (S)-6-(((1-cyclopropyl-1H-1,2,3-triazol-4-yl)(2-methylbenzo[d]thiazol-7-yl)methyl)amino)-4-(neopentylamino)-quinoline-3,8-dicarbonitrile]",2 nM,41 nM,
"CN1Cc2cccc([C@H](Nc3cc(C#N)c4ncc(C#N)c(NCC(C)(C)C)c4c3)c3cn(C4CC4)nn3)c2C1=O [Example 77, (S)-6-(((1-cyclopropyl-1H-1,2,3-triazol-4-yl)(2-methyl-3-oxoisoindolin-4-yl)methyl)amino)-4-(neopentylamino)quinoline-3,8-dicarbonitrile]",3 nM,154 nM,
"Cc1nc(F)ccc1[C@H](Nc1cc(Cl)c2ncc(C#N)c(NCC(C)(C)C)c2c1)c1nnn(C2(C(F)F)CC2)c1C#N [Example 974, (S)-8-chloro-6-(((5-cyano-1-(1-(difluoromethyl)cyclopropyl)-1H-1,2,3-triazol-4-yl)(6-fluoro-2-methylpyridin-3-yl)methyl)amino)-4-(neopentylamino)quinoline-3-carbonitrile]",,,IC50 (Human Cot; [3]): 11 nM; EC50 (TNFα; [4]): 60 nM
"N#Cc1cnc2c(Cl)cc(N[C@@H](c3cccnc3)c3c[nH]nn3)cc2c1N[C@@H](CCO)c1ccccc1 [Example 178, 8-chloro-4-(((S)-3-hydroxy-1-phenylpropyl)amino)-6-(((S)-pyridin-3-yl(1H-1,2,3-triazol-4-yl)methyl)amino)quinoline-3-carbonitrile]",7 nM,931 nM,
"CC(C)n1cc([C@@H](Nc2cc(Cl)c3ncc(C#N)c(Nc4ccc(F)c(Cl)c4)c3c2)c2cscn2)nn1 [Example 357, (S)-8-chloro-4-((3-chloro-4-fluorophenyl)amino)-6-(((1-isopropyl-1H-1,2,3-triazol-4-yl)(thiazol-4-yl)methyl)amino)quinoline-3-carbonitrile]",5 nM,235 nM,
"CC(C)(C)CNc1c(C#N)cnc2c(C#N)cc(N[C@H](c3cn(C4CC4)nn3)c3cccc4cnccc34)cc12 [Example 468, (S)-6-(((1-cyclopropyl-1H-1,2,3-triazol-4-yl)(isoquinolin-5-yl)methyl)amino)-4-(neopentylamino)quinoline-3,8-dicarbonitrile]",1 nM,18 nM,
"CC(C)(C)N1CCC(n2cc([C@@H](Nc3cc(Cl)c4ncc(C#N)c(Nc5ccc(F)c(Cl)c5)c4c3)c3ccc(Cl)nc3Cl)nn2)CC1 [Example 325, (S)-6-(((1-(1-(tert-butyl)piperidin-4-yl)-1H-1,2,3-triazol-4-yl)(2,6-dichloropyridin-3-yl)methyl)amino)-8-chloro-4-((3-chloro-4-fluorophenyl)-amino)quinoline-3-carbonitrile]",20 nM,650 nM,
"CCN1CCC(n2cc([C@H](c3cccnc3)N(CC)c3cc(Cl)c4ncc(C#N)c(Nc5ccc(F)c(Cl)c5)c4c3)nn2)CC1 [Example 368, (S)-8-chloro-4-((3-chloro-4-fluorophenyl)amino)-6-(ethyl((1-(1-ethylpiperidin-4-yl)-1H-1,2,3-triazol-4-yl)(pyridin-3-yl)methyl)-amino)quinoline-3-carbonitrile]",649 nM,6300 nM,
"Cc1ncccc1[C@H](Nc1cc(Cl)c2ncc(C#N)c(Nc3cccc(Cl)c3)c2c1)c1cn(C2CCN(C(C)(C)C)CC2)nn1 [Example 226, (S)-6-(((1-(1-(tert-butyl)piperidin-4-yl)-1H-1,2,3-triazol-4-yl)(2-methylpyridin-3-yl)methyl)amino)-8-chloro-4-((3-chlorophenyl)amino)quinoline-3-carbonitrile]",8 nM,880 nM,
"Cc1nc(F)ccc1[C@H](Nc1cc(Cl)c2ncc(C#N)c(NCC(C)(C)C)c2c1)c1cn(CC2(C)CC2)nn1 [Example 764, (S)-8-chloro-6-(((6-fluoro-2-methylpyridin-3-yl)(1-((1-methylcyclopropyl)-methyl)-1H-1,2,3-triazol-4-yl)methyl)amino)-4-(neopentylamino)quinoline-3-carbonitrile]",4 nM,46 nM,
"CC(C)(C)CNc1c(C#N)cnc2c(Cl)cc(NC(c3cn(C4CC4)nn3)c3csc4c3CCN(C3COC3)C4)cc12 (stereo not drawn) [Example 91, 8-chloro-6-(((1-cyclopropyl-1H-1,2,3-triazol-4-yl)(6-(oxetan-3-yl)-4,5,6,7-tetrahydro-thieno[2,3-c]pyridin-3-yl)-methyl)amino)-4-(neopentylamino)-quinoline-3-carbonitrile]",2 nM,52 nM,
CC(C)(C)N1CCC(n2cc([C@@H](Nc3cc(Cl)c4ncc(C#N)c(Nc5cccc(Cl)c5F)c4c3)c3cccnc3)nn2)CC1 [Example 286],,,IC50 (Human Cot; [5]): 4 nM; EC50 (TNFα; [6]): 121 nM
"Cc1nc(F)ccc1[C@H](Nc1cc(C#N)c2ncc(C#N)c(NCC(C)(C)C)c2c1)c1cn(C2(C(C)C)CC2)nn1 [Example 851, (S)-6-(((6-fluoro-2-methylpyridin-3-yl)(1-(1-isopropylcyclopropyl)-1H-1,2,3-triazol-4-yl)methyl)amino)-4-(neopentylamino)quinoline-3,8-dicarbonitrile]",,,IC50 (Human Cot; [3]): 3 nM; EC50 (TNFα; [4]): 21 nM
"CC(C)(C)CNc1c(C#N)cnc2c(C#N)cc(N[C@@H](c3cn(C4CC4)nn3)c3cccc4ncsc34)cc12 [Example 410, (R)-6-((benzo[d]thiazol-7-yl(1-cyclopropyl-1H-1,2,3-triazol-4-yl)methyl)amino)-4-(neopentyl-amino)quinoline-3,8-dicarbonitrile]",113 nM,1000 nM,
"[2H][C@](Nc1cc(C#N)c2ncc(C#N)c(N[C@H](CC#N)c3ccccc3)c2c1)(c1ccc(F)nc1)c1cn(C2CC2)nn1 [Example 100, 4-(((R)-2-cyano-1-phenylethyl)amino)-6-(((S)-(1-cyclopropyl-1H-1,2,3-triazol-4-yl)(6-fluoropyridin-3-yl)methyl-d)amino)quinoline-3,8-dicarbonitrile]",3 nM,142 nM,
"Cc1ncccc1[C@H](Nc1cc(Cl)c2ncc(C#N)c(Nc3ccc(Cl)c(Cl)c3F)c2c1)c1c[nH]nn1 [Example 227, (S)-8-chloro-4-((3,4-dichloro-2-fluorophenyl)amino)-6-(((2-methylpyridin-3-yl)(1H-1,2,3-triazol-4-yl)methyl)amino)-quinoline-3-carbonitrile]",44 nM,6420 nM,
"CC(C)(C)N1CCC(n2cc([C@@H](Nc3cc(Cl)c4ncc(C#N)c(Nc5cccc(Cl)c5F)c4c3)c3csc4c3CCN(C3COC3)C4)nn2)CC1 [Example 241, (S)-6-(((1-(1-(tert-butyl)piperidin-4-yl)-1H-1,2,3-triazol-4-yl)(6-(oxetan-3-yl)-4,5,6,7-tetrahydrothieno[2,3-c]pyridin-3-yl)methyl)amino)-8-chloro-4-((3-chloro-2-fluorophenyl)amino)-quinoline-3-carbonitrile]",2 nM,32 nM,
CC1(C)CC(n2cc([C@@H](Nc3cc(Cl)c4ncc(C#N)c(Nc5ccc(F)c(Cl)c5)c4c3)c3cccnc3)nn2)CC(C)(C)N1 [Example 309],,,IC50 (Human Cot; [5]): 8 nM; EC50 (TNFα; [6]): 181 nM
"Cn1ccc2c([C@H](Nc3cc(Cl)c4ncc(C#N)c(NCC(C)(C)C)c4c3)c3cn(C4(C)CC4)nn3)cccc2c1=O [Example 776, (S)-8-chloro-6-(((2-methyl-1-oxo-1,2-dihydroisoquinolin-5-yl)(1-(1-methylcyclopropyl)-1H-1,2,3-triazol-4-yl)methyl)amino)-4-(neopentylamino)quinoline-3-carbonitrile]",2 nM,24 nM,
"Cc1ncsc1[C@H](Nc1cc(Cl)c2ncc(C#N)c(Nc3ccc(Cl)c(Cl)c3F)c2c1)c1cn(C2CCN(C(C)(C)C)CC2)nn1 [Example 236, (R)-6-(((1-(1-(tert-butyl)piperidin-4-yl)-1H-1,2,3-triazol-4-yl)(4-methylthiazol-5-yl)methyl)amino)-8-chloro-4-((3,4-dichloro-2-fluorophenyl)amino)quinoline-3-carbonitrile]",9 nM,172 nM,
